Consider two molecules from US6043265A, “Isoxazolyl endothelin antagonists” (Bristol-Myers Squibb Co., priority 1998, dated 2000).

The nature of series [1]: Oral bioavailability in fasted male rats (intravenous and oral dosing). Type of series: in vivo. To be noted: for bioavailability / AUC(0-inf): rat, plasma; for bioavailability: from dose-normalized AUC.infin. oral vs intravenous; for AUC(0-inf): fasted male rats (n=3), read-out: area under the curve AUC.infin. On the procedure: Fasted male rats (n=3) were given a single dose of the title compound either intravenously (10 μmol/kg as a 10 minute infusion) or orally by gavage (20 μmol/kg). The dosing vehicle was propylene glycol for the intravenous dose and PEG-400 for the oral dose. Following dosing, the average plasma concentration of the title compound was measured over time, and the area under the curve AUC.infin.

Series [2] deals with big ET-1 pressor response. As to the kind of experiment: Pressor testing (i): inhibition of big ET-1 pressor response after intravenous dosing. It is filed as in vivo. To be noted: Rattus norvegicus, 5 min, read-out: dose causing 50% inhibition of the big ET-1 pressor response (ED50), human big ET-1 1 nmol/kg i.v. before and 5 minutes after compound, conscious normotensive Sprague-Dawley rats. On the procedure: (i) Intravenous injection of big ET-1 into conscious, normotensive rats produces a transient increase in mean arterial pressure which can be blunted by an ETA receptor antagonist.
A bolus injection of human big ET-1 (1 nmol/kg, intravenously; vehicle: 1% Tween 80 in 5% NaHCO3) was administered to Sprague-Dawley rats before and 5 minutes after intravenous injection of an amount of the title compound (0.01 μmol/kg (n=10), 0.03 μmol/kg (n=10), and 0.1 μmol/kg (n=3)). Peak pressor responses were compared to determine the amount of inhibition caused by the title compound.

Series [3] concerns big ET-1 pressor response. As to the kind of experiment: Pressor testing (ii): inhibition of big ET-1 pressor response over time after oral dosing. Type of series: in vivo, Sprague-Dawley rats. To be noted: 3 μmol/kg, human big ET-1 1 nmol/kg i.v., n=3. The source says:
Peak pressor responses were compared to determine the amount of inhibition caused by the title compound at these time intervals.

The nature of series [4]: Pre-systemic metabolic stability within the gastrointestinal tract, in vivo (bile duct cannulated rats). To be noted: rat, po, 29 mg/kg. On the procedure: Bile duct cannulated rats were fasted overnight. The title compound was administered as a solution in 5% sodium bicarbonate (ca. 8 mg/ml, 29 mg/kg) by oral gavage. Gastrointestinal tract homogenate was made in 3 volumes of water and an equal volume of acetonitrile was added.

A further series in a line: in vitro. Particulars: rat, cecal contents, pH 7.4.

Read-outs that look alike come from different tables or passages of the source.

Procedure for in vitro: Rat cecal contents were quickly placed in cold, degassed potassium phosphate buffer (50 mM, pH 7.4, purged by nitrogen bubbling for at least 30 minutes). Each incubation contained ca. 0.1 g of cecal contents/ml. […] Samples were analyzed with HPLC-UV and LC-MS on a YMC-ODS AQ column (4.6×150 mm, 3μ) eluted with an ammonium acetate/acetonitrile gradient and detected at 270 nm.

`Cc1onc(NS(=O)(=O)c2ccccc2-c2ccc(-c3ncco3)cc2CN2CCC(C)(C)C2=O)c1C` [N-(4,5-dimethyl-3-isoxazolyl)-2'-[(3,3-dimethyl-2-oxo-1-pyrrolidinyl)methyl]-4'-(2-oxazolyl)[1,1'-biphenyl]-2-sulfonamide]: the bioavailability in series [1] (20 umol/kg, fasted male rats) is around 78%.
With `Cc1onc(NS(=O)(=O)c2ccccc2-c2ccc(-c3ncco3)cc2CN(C)C(=O)CC(C)(C)C)c1C` [N-[[2'-[[(4,5-dimethyl-3-isoxazolyl)amino]sulfonyl]-4-(2-oxazolyl)[1,1'-biphenyl]-2-yl]methyl]-N,3,3-trimethylbutanamide], in series [2], the ED50 was determined as 0.03 µmol/kg. Further, the “% Inhibition (big ET-1 pressor response)” value was 57 ± 7% in series [3] (15 minutes after dosing), 65 ± 13% in series [3] (105 minutes after dosing) and 74 ± 8% in series [3] (195 minutes after dosing). In series [4], the “metabolites in the gastrointestinal tract” value was “metabolites were not observed”. The same molecule had a share remaining at 9 h in series [4] of 100%. This molecule came in with a share remaining at 1 h, 200 µM in “in vitro” of 100%. Also, in series [1] (fasted male rats, 10 μmol/kg intravenous vs 20 μmol/kg oral), the “dose-normalized AUC.infin. values, intravenous versus oral” value is reported as “not statistically different”. In addition, the AUC(0-inf) in series [1] (10 umol/kg, intravenous, 10 μmol/kg as a 10 minute infusion, propylene glycol vehicle) is 31.3 ± 2.9 µM·h; in series [1] (20 umol/kg, oral gavage, 20 μmol/kg, PEG-400 vehicle), 72.8 ± 17.3 µM·h. This molecule displayed a bioavailability in series [1] (20 umol/kg, fasted male rats) of around 100%.
